Reference: patent US20240066133A1, “THERAPEUTIC AGENTS AND CONJUGATES THEREOF” (Beijing Xuanyi PharmaSciences Co., Ltd., priority 2020, published 2024)
Like-named read-outs stand apart in the source and are kept apart here. Each block holds one compound with its values, some of them ahead of it.

Experiments:
[1] = molecular target: T1, Human STING (hSTING-R232) (Homo sapiens, UniProt Q86WV6, H232R); assay: Activation of human STING signaling in THP1-Dual KI-hSTING-R232 cells (IRF promoter, QUANTI-Luc); format: cell-based; conditions: THP1 cell line, 24 h, read-out: EC50 IRF3
T1 construct: host or cells: THP1-Dual KI-hSTING-R232 cells
Protocol: Activation of Human STING Signaling in THP1 Cell Line
The cells were treated with 20 μl/well of compounds at 8 concentrations in duplicate in 96-well plate, and incubate for 24 h. To measure IRF promoter activity, 15 μl of cell culture supernatant was mixed with 45 μl QUANTI-Luc in an opaque 96-well plate and immediately measured using Luminometer; to measure NF-κB promoter activity, 15 μl of supernatant was mixed with 90 μl QUANTI-Blue, and incubated at 37° C. for 90 minutes, and read at OD650 nm. EC50 was calculated by nonlinear regression fit with 4-parameter responsive curve fitting using GraphPad Version 8 software (Table 1).

hSTING R232 = molecular target: T2, hSTING R232 (Homo sapiens, UniProt Q86WV6, H232R); assay: IRF activation in 293T-Dual hSTING R232 cells (Quanti-Blue); format: cell-based; conditions: 24 hr, read-out: EC50 IRF3
T2 construct: host or cells: 293T-Dual hSTING R232 cells
Protocol: A test compound with a serial of 1:3 dilution was prepared in complete medium, and 20 μL of the compound was added to the corresponding well, and incubated with the cells at 37° C. incubator for 24 hr.
To determine the effect on interferon regulatory factor (IRF) activation, 15 μL of cell culture supernatant was transferred into a fresh 96-half area-well plate, 90 μL of Quanti-Blue was added to each well and incubated at 37° C. for 90 min. OD at 650 nm was recorded. EC50 was calculated by nonlinear regression fit with 4-parameter responsive curve fitting using GraphPad Version 8 software (Table 2).

MC38 tumor cells [2] = assay: MC38 murine syngeneic model, Example 98 (Table 5); format: in vivo, C57BL/6 mouse; conditions: IT, Q3d × 3; doses per Table 5 (A5-I 3, A19 50 and 17, A33 17×2/8×1, A34 50, A38 51×1/17×2, A69 50, A71 50, A85 46 μg/mouse)
Protocol: Example 98. Evaluation of Compound A5-I, A19, A33, A34, A38, A69, A71 and A85 in MC38 Murine Syngeneic Model
Compounds (listed in Table 5), were administered by IT injection.

MC38 tumor cells [3] = conditions: IT 5 ug/mouse every three days, three injections; for anti-tumor efficacy (tumor growth, FIG. 1): single agent, subcutaneous MC38
Protocol: To Evaluate the in vivo efficacy of A5-I, A5-II, A6-I and A6-II, C57BL/6 mouse was subcutaneously inoculated in the right flank with MC38 tumor cells (1×10^6) in 40 ul of HBSS for tumor development. Treatment started when tumor size reached around 80-100 mm^3, on day 7 after tumor cell implantation. Compounds were administered by IT injection and repeated every three days with total three injections. […] Tumor volumes were measured twice to thrice weekly.

T1 sequence (Q86WV6 whole entry H232R): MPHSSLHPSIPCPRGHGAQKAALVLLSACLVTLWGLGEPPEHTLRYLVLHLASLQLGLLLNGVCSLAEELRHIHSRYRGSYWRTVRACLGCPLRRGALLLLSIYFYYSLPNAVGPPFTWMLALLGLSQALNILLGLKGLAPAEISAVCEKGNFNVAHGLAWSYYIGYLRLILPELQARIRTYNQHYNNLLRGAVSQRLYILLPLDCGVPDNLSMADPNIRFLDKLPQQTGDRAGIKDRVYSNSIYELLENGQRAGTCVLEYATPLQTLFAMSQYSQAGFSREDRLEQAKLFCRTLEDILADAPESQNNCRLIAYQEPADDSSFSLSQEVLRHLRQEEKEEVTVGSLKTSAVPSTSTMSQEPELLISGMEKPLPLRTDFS
T2 sequence (Q86WV6 whole entry H232R): as above

EC50 ([1]; Assay Results 1 (average of more than 2 runs)): 450 nM
EC50 ([1]; Assay Results 2 (single run)): 564 nM
EC50 (hSTING R232): 59 nM
SMILES: BP1(=O)OC[C@H]2O[C@@H](n3cnc4c(N)ncnc43)[C@H](F)[C@@H]2O[P@@](=O)(S)OC[C@H]2O[C@@H](n3cnc4c(=O)[nH]c(N)nc43)[C@H](F)[C@@H]2O1 (single isomer, unassigned) [Compound A1]

SMILES: B[P@]1(=O)OC[C@H]2O[C@@H](n3cnc4c(N)ncnc43)[C@H](F)[C@@H]2O[P@@](=O)(S)OC[C@H]2O[C@@H](n3cnc4c(N)ncnc43)[C@H](F)[C@@H]2O1 [Compound A5-I, ((2R,3R,3aR,5S,7aR,9R,10R,10aR,12S,14aR)-2,9-bis(6-amino-9H-purin-9-yl)-3,10-difluoro-12-mercapto-5,12-dioxidooctahydro-2H,7H-difuro [3,2-d:3′,2′-j][1,3,7,9]tetraoxa[2,8]diphosphacyclododecin-5-yl)trihydroborate]
anti-tumor activity compared to vehicle-treated group (FIG. 5) (MC38 tumor cells [2]): significantly improved anti-tumor activity
tumor regression (FIG. 1) (MC38 tumor cells [3]): complete regression for all treated mice
anti-tumor efficacy (tumor growth, FIG. 1) (MC38 tumor cells [3]): significant anti-tumor efficacy

SMILES: B[P@@]1(=O)OC[C@H]2O[C@@H](n3cnc4c(N)ncnc43)[C@H](F)[C@@H]2O[P@](=O)(S)OC[C@H]2O[C@@H](n3cnc4c(N)ncnc43)[C@H](F)[C@@H]2O1 [Compound A6-II]
anti-tumor efficacy (tumor growth, FIG. 1) (MC38 tumor cells [3]): significant anti-tumor efficacy

SMILES: BP1(=O)OC[C@H]2O[C@@H](n3cnc4c(N)ncnc43)[C@H](F)[C@@H]2O[P@](=O)(S)OC[C@H]2O[C@@H](n3cnc4c(N)ncnc43)[C@H](F)[C@@H]2O1 (some centres unmarked) [Compound A6-I]
anti-tumor efficacy (tumor growth, FIG. 1) (MC38 tumor cells [3]): significant anti-tumor efficacy
